This note sets out measurements from patent publication US20240217966A1, “PHARMACEUTICAL COMPOSITION CONTAINING GLP-1 RECEPTOR AGONIST HAVING FUSED RING” (Shionogi & Co., Ltd., priority 2021, published 2024).

As a reminder, the Emax is the maximal effect, on the per cent scale that the assay sets. For orientation: EC50 means the concentration needed to bring the measured effect to its halfway point.

In one data set the target is T1, Human GLP-1 receptor (Homo sapiens, UniProt P43220).
T1 construct: expressed in transfected cells
T1 sequence (P43220 24-463): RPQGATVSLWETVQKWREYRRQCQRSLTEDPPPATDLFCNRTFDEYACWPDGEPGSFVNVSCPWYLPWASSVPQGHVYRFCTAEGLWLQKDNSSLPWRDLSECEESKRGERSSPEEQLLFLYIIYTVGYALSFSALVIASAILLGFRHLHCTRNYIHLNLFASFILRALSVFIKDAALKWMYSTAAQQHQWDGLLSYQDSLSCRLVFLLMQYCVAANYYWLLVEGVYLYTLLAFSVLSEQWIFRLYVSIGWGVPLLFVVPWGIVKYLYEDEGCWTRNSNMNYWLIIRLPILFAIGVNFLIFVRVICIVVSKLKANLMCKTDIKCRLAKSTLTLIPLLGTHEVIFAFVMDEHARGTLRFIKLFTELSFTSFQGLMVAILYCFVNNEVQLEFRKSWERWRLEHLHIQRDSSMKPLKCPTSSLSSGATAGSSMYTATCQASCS
The data set is described as follows: Measurement of GLP-1 receptor agonist activity (cAMP assay). It counts as cell-based. An outline of the steps: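 Agonism measured as cAMP accumulation by time-resolved FRET immunoassay in CHO-K1 cells stably expressing human GLP-1 receptor. Cells treated for 1 h at 37 °C with compound and forskolin (400 μM stock), in buffer containing the PDE inhibitors IBMX (0.1 mM) and RO20-1724 (0.2 mM).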
On the technique in general: cAMP levels reflect the balance of adenylyl cyclase and phosphodiesterase activity.

Data set [1] in a line: Metabolism stability test (Test Example 2-2). The class given is in vitro ADME. Conditions: pooled human liver microsomes 0.5 mg protein/mL, 37° C., 30 minutes, 1 mmol/L NADPH (oxidative reaction), compound concentration 0.5 μmol/L. How it is done:
Test Example 2-2: Metabolism Stability Test
Using commercially available pooled human liver microsomes, a compound of the present invention is reacted for a constant time, and a remaining rate is calculated by comparing a reacted sample and an unreacted sample, thereby, a degree of metabolism in liver is assessed.
A reaction is performed (oxidative reaction) at 37° C. for 0 minute or 30 minutes in the presence of 1 mmol/L NADPH in 0.2 mL of a buffer (50 mmol/L Tris-HCl pH 7.4, 150 mmol/L potassium chloride, 10 mmol/L magnesium chloride) containing 0.5 mg protein/mL of human liver microsomes. After the reaction, 70 μL of the reaction solution is added to 140 μL of a methanol/acetonitrile=1/1 (v/v), mixed and centrifuged at 3000 rpm for 15 minutes. The compound of the present invention in the centrifuged supernatant is quantified by LC/MS/MS or solid-phase extraction (SPE)/MS. The ratio of the amount of the compound after the reaction, with respect to the amount of the compound at 0 minutes of the reaction defined as 100%, is shown as the residual rate. Hydrolysis reaction is performed in the absence of NADPH, and glucuronidation reaction is performed in the presence of 5 mmol/L UDP-glucuronic acid instead of NADPH. Then, the same operation is carried out. The dilution concentration or the dilution solvent are changed as necessary.
The compounds of the present invention were tested essentially as described above.

Setting [2] is: CHO-K1, hGLP-1R/CHO-K1 cells, cAMP, 100% = human GLP-1 (7-36) at 2 nM, 0% = DMSO only, read-out: Emax(%).
Where [3] appears, read: hGLP-1R/CHO-K1 cells, cAMP increase, 37° C. 1 hour.
Setting [4] is: CHO-K1, maximum effect, cAMP increase in GLP-1 R/CHO-K1 cells, 2 nM human GLP-1 (7-36) = 100%, DMSO only = 0%, read-out: Emax.
The mark [5] stands for this setting: cAMP increase in GLP-1 R/CHO-K1 cells, 2 nM human GLP-1 (7-36) = 100%, DMSO only = 0%.

Like-named read-outs stand apart in the source and are kept apart here. Bounds are passed on as bounds.

Turning to `O=C(O)c1cc(F)c2nc(CN3CCc4cc(C(F)(F)F)c(OCc5ccc(Cl)cc5F)cc4C3)n(C[C@@H]3CCO3)c2c1` [Compound I-033], at Human GLP-1 receptor (setting [2]), the maximal response (Emax) is 109%. On Human GLP-1 receptor (setting [3]), this compound had an EC50 of 1.49 nM. Also, the “residual rate of the compound” value in data set [1] is 87.1%.
For `C[C@H]1c2cc(OCc3ccc(Cl)cc3F)c(C(F)(F)F)cc2CCN1Cc1nc2ccc(C(=O)O)cc2n1C[C@@H]1CCO1` [Compound I-035], in that order: 129%, 0.298 nM and 87.1%.
For the compound `O=C(O)c1ccc2nc(Cc3ccc4nc(C(F)(F)F)c(OCc5ccc(Cl)cc5F)nc4c3F)n(C[C@@H]3CCO3)c2c1` [Compound I-109], on Human GLP-1 receptor (setting [2]), the Emax was 114%. At Human GLP-1 receptor (setting [3]), this compound yielded an EC50 of 0.472 nM. Also, the “residual rate of the compound” value in data set [1] turned out to be 99.6%.
The like results for `C[C@H]1c2cc(OCc3ccc(Cl)cc3F)c(C(F)(F)F)cc2CCN1Cc1nc2ccc(C(=O)O)c(F)c2n1C[C@@H]1CCO1` [Compound I-117] were, in that order, 117%, 0.327 nM and 96.9%.
For `C[C@H]1c2cc(OCc3ccc(F)cc3)c(C(F)(F)F)cc2CCN1Cc1nc2ccc(C(=O)O)cc2n1C[C@@H]1CCO1` [Compound I-123], the Emax at Human GLP-1 receptor (setting [2]) turned out to be 97.7%. The EC50 at Human GLP-1 receptor (setting [3]) is 3.76 nM. Moreover, the “residual rate of the compound” value in data set [1] is reported as more than 99.9%.
For `C[C@H]1c2nc(OCc3ccc(Cl)cc3F)c(C(F)(F)F)cc2CCN1Cc1nc2ccc(C(=O)O)cc2n1C[C@@H]1CCO1` [Compound I-145], in that order: 108%, 0.0938 nM and 94.0%.
The like results for `C[C@H]1c2nc(OCc3ccc(Cl)cc3F)c(C(F)(F)F)cc2CCN1Cc1nc2ccc(C(=O)O)c(F)c2n1C[C@@H]1CCO1` [Compound I-160] were, in that order, 118%, 0.0524 nM and 92.4%.
As to `COc1cc(C(=O)O)cc2c1nc(CN1CCc3cc(C(F)(F)F)c(OCc4ccc(Cl)cc4Cl)nc3[C@@H]1C)n2C[C@@H]1CCO1` [Compound I-377], the Emax on Human GLP-1 receptor (setting [4]) was 126%. The EC50 on Human GLP-1 receptor (setting [5]) is 0.0176 nM.
The like results for `COc1cc(C(=O)O)cc2c1nc(CN1CCc3cc(C(F)(F)F)c(OCc4cc(F)c(Cl)cc4F)nc3[C@@H]1C)n2C[C@@H]1CCO1` [Compound I-378] were, in that order, 95.3% and 0.0146 nM.
The like results for `COc1cc(C(=O)O)cc2c1nc(CN1CCc3cc(C(F)(F)F)c(OCc4c(F)cc(Cl)cc4F)nc3[C@@H]1C)n2C[C@@H]1CCO1` [Compound I-379] were, in that order, 96% and 0.0121 nM.
Regarding `O=C(O)c1cc(F)c2nc(CN3CCc4cc(C(F)(F)F)c(OCc5ccc(Cl)cc5)nc4C3)n(C[C@@H]3CCO3)c2c1` [Compound I-380], the Emax on Human GLP-1 receptor (setting [4]) was 108%. Besides, the 50% effective concentration (EC50) on Human GLP-1 receptor (setting [5]) came to 0.382 nM.
For `Cc1ccc(COc2nc3c(cc2C(F)(F)F)CCN(Cc2nc4c(F)cc(C(=O)O)cc4n2C[C@@H]2CCO2)C3)cc1` [Compound I-381], the Emax at Human GLP-1 receptor (setting [4]) stood at 116%. At Human GLP-1 receptor (setting [5]), this compound displayed an EC50 of 0.702 nM.
The like results for `COc1cc(Cl)ccc1COc1nc2c(cc1C(F)(F)F)CCN(Cc1nc3c(F)cc(C(=O)O)cc3n1C[C@@H]1CCO1)C2` [Compound I-382] were, in that order, 125% and 0.159 nM.
The like results for `O=C(O)c1cc(F)c2nc(CN3CCc4cc(C(F)(F)F)c(OCc5ccc(F)cc5F)nc4C3)n(C[C@@H]3CCO3)c2c1` [Compound I-383] were, in that order, 109% and 0.516 nM.
Consider `O=C(O)c1cc(F)c2nc(CN3CCc4cc(C(F)(F)F)c(OCc5ccc(Cl)cc5Cl)nc4C3)n(C[C@@H]3CCO3)c2c1` [Compound I-384], for which, on Human GLP-1 receptor (setting [4]), the Emax came to 114%. This compound returned an EC50 on Human GLP-1 receptor (setting [5]) of 0.126 nM.
For the compound `O=C(O)c1cc(F)c2nc(CN3CCc4cc(C(F)(F)F)c(OCc5ccc(Cl)cc5F)nc4C3)n(C[C@@H]3CCO3)c2c1` [Compound I-385], the Emax at Human GLP-1 receptor (setting [4]) is 112%.
For the compound `COc1cc(C(=O)O)cc2c1nc(CN1CCc3cc(C(F)(F)F)c(OCc4ccc(Cl)cc4)nc3C1)n2C[C@@H]1CCO1` [Compound I-386], the Emax on Human GLP-1 receptor (setting [4]) was determined as 112%. A half-maximal effect on Human GLP-1 receptor (setting [5]) (EC50) was put at 0.0877 nM.
For `COc1cc(C(=O)O)cc2c1nc(CN1CCc3cc(C(F)(F)F)c(OCc4ccc(C)cc4)nc3C1)n2C[C@@H]1CCO1` [Compound I-387], the Emax on Human GLP-1 receptor (setting [4]) stood at 122%. For the same compound, the midpoint of the response on Human GLP-1 receptor (setting [5]), the EC50, lay at 0.178 nM.
Take `COc1cc(Cl)ccc1COc1nc2c(cc1C(F)(F)F)CCN(Cc1nc3c(OC)cc(C(=O)O)cc3n1C[C@@H]1CCO1)C2` [Compound I-388]: at Human GLP-1 receptor (setting [4]), the Emax was 115%. On Human GLP-1 receptor (setting [5]), this compound returned an EC50 of 0.0523 nM.
In the case of `COc1cc(C(=O)O)cc2c1nc(CN1CCc3cc(C(F)(F)F)c(OCc4ccc(Cl)cc4Cl)nc3C1)n2C[C@@H]1CCO1` [Compound I-389], the Emax at Human GLP-1 receptor (setting [4]) came out at 115%. This compound also had an EC50 on Human GLP-1 receptor (setting [5]) of 0.05 nM.
On to `COc1cc(C(=O)O)cc2c1nc(CN1CCc3cc(C(F)(F)F)c(OCc4ccc(Cl)cc4F)nc3C1)n2C[C@@H]1CCO1` [Compound I-390], for which, on Human GLP-1 receptor (setting [4]), the Emax is 107%. The compound also came in with an EC50 on Human GLP-1 receptor (setting [5]) of 0.046 nM.
For `C[C@H]1c2nc(OCc3ccc(Cl)cn3)c(C(F)(F)F)cc2CCN1Cc1nc2ccc(C(=O)O)nc2n1C[C@@H]1CCO1` [Compound I-391], in that order: 107% and 0.396 nM.
Turning to `COc1cc(C(=O)O)cc2c1nc(CN1CCc3cc(C(F)(F)F)c(OCc4ccc(Cl)cn4)nc3[C@@H]1C)n2C[C@@H]1CCO1` [Compound I-392], the Emax on Human GLP-1 receptor (setting [4]) was 135%. This compound also showed an EC50 on Human GLP-1 receptor (setting [5]) of 0.0156 nM.
Turning to `C[C@H]1c2nc(OCc3ccc(Cl)cc3F)c(I)cc2CCN1Cc1nc2ccc(C(=O)O)cc2n1C[C@@H]1CCO1` [Compound I-393], the maximal response (Emax) on Human GLP-1 receptor (setting [4]) stood at 121%. For the same compound, the EC50 on Human GLP-1 receptor (setting [5]) is 0.099 nM.
The like results for `C[C@H]1c2nc(OCc3ccc(Cl)cc3F)c(C(F)F)cc2CCN1Cc1nc2ccc(C(=O)O)cc2n1C[C@@H]1CCO1` [Compound I-394] were, in that order, 108% and 0.0497 nM.
The like results for `C[C@H]1c2nc(OCc3ccc(Cl)cc3F)ccc2CCN1Cc1nc2ccc(C(=O)O)cc2n1C[C@@H]1CCO1` [Compound I-395] were, in that order, 89.7% and 0.618 nM.
